{"source": "paper PMC5599477", "about": "“Comparative stability of Major Facilitator Superfamily transport proteins” (European Biophysics Journal, 2017)", "key": {"GlpT": {"biological_target": "T1, GlpT (Escherichia coli, UniProt P08194)", "T1 construct": "10-His tag (modified pET28a), expressed in E. coli BL21-AI, purified, detergent-solubilised (LacY-WT procedure, Tris-HCl pH 7.4)", "T1 sequence (P08194 1-452)": "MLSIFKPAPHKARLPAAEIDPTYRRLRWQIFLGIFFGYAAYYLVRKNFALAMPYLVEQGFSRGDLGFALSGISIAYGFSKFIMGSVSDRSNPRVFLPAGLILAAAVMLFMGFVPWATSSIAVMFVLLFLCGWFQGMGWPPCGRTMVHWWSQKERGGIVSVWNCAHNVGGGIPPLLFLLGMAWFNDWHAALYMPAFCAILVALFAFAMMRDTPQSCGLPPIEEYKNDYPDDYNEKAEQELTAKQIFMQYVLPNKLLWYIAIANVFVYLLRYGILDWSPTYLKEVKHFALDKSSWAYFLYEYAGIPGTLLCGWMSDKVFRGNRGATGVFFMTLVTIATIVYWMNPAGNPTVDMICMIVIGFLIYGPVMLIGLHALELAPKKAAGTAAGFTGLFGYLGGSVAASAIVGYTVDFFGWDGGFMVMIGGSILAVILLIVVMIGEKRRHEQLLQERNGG", "assay": "far-UV circular dichroism at […] nm, urea denaturation with ligand", "assay_type": "binding", "details": "50 uM ligand; 0.01 mg/ml protein; detergent-solubilised; 50 mM Tris-HCl pH 7.4; chemical denaturation onset, not an affinity"}, "XylE": {"biological_target": "T2, XylE (Escherichia coli, UniProt P0AGF4)", "T2 construct": "10-His tag (modified pET28a), expressed in E. coli BL21-AI, purified, detergent-solubilised (LacY-WT procedure)", "T2 sequence (P0AGF4 1-491)": "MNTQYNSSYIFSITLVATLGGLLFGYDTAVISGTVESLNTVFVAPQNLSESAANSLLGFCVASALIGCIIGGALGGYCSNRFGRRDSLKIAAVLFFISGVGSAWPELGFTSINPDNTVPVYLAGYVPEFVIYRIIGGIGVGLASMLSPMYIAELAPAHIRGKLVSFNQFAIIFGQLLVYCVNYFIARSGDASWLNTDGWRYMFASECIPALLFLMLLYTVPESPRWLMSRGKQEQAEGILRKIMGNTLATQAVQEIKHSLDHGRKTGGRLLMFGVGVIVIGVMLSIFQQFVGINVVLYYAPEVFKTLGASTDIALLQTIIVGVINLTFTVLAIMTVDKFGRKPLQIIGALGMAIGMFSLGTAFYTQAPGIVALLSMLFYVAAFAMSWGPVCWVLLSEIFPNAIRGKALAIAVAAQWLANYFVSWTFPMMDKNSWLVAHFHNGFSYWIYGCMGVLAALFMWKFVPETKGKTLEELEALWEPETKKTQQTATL", "assay": "far-UV circular dichroism at […] nm, GuHCl denaturation with ligand", "assay_type": "binding", "details": "1 mM ligand; 0.35 mg/ml protein; detergent-solubilised; chemical denaturation onset, not an affinity; D/L form not given"}}}
{"compound": "Cc1ncc(COP(=O)(O)O)c(C=O)c1O", "note": "[pyridoxal-5-phosphate]", "values": [{"measurement": "Effect of ligand on stability", "setting": "GlpT", "value": "> 6", "unit": "M urea"}]}
{"compound": "OC1OC[C@@H](O)[C@H](O)[C@H]1O", "note": "(some centres unmarked) [xylose]", "values": [{"measurement": "Concentration of GuHCl required for unfolding (M)", "setting": "XylE", "value": "> 5", "unit": "M GuHCl"}]}
